Laboratory results: EP4640674A1, “CRYSTAL FORMS OF ETHOXIMOD, PREPARATION METHOD THEREFOR AND USE THEREOF” (Jiankuan (Suzhou) Biotechnology Co., Ltd, priority 2022, dated 2024)
“And” between values parts separate entries of the source, which are not always exact repeats. Identical values can stand only once.

Key:
Assay type in all cases: physicochemical
[1] = Adhesion test in ziplock bag; conditions: ziplock bag flipped at 5 rpm, 10 min in each direction; hydrochloride
Experimental: Each of the crystal form A and the crystal form B of ethoximod was taken and put into a ziplock bag with a fixed size. A seal was sealed, and the ziplock bag was flipped at a rotation speed of 5 rpm for 10 min. A direction was changed, and the ziplock bag continued to be flipped at a fixed rotation speed for 10 min. Raw materials were poured out from the bag, a mass of the remaining raw materials was weighed accurately, and an adhesion rate was calculated.

[2] = Dynamic solubility at 37 °C (HPLC; residual solid by XRPD)
Experimental: Samples of the crystal form A and the crystal form B of ethoximod were taken and prepared into saturated solutions at 37 °C in Fasted State Simulated Intestinal Fluid (FaSSIF, pH = 8.0), Fed State Simulated Intestinal Fluid (FeSSIF, pH = 5.0), Simulated Gastric Fluid (SGF, pH = 1.0), a hydrochloric acid aqueous solution (pH = 1.0), an acetic acid-sodium acetate buffer system (pH = 4.0), a phosphate buffer system (pH = 6.8) and water. After 1 h/2 h/4 h/24 h, filtration was performed to obtain solutions, and actual concentrations of the samples in the solutions were measured through high-performance liquid chromatography (HPLC) (diluting the filtrates as needed). Crystal forms of the solids before and after the experiment were characterized through XRPD to check whether phase transition had occurred. Table 4 Comparison of solubility of crystal form A and crystal form B

[3] = Compressibility: tableting evaluation; conditions: tableting, punch die with a diameter of 6 mm; hydrochloride
Experimental: The crystal form A and the crystal form B of ethoximod were taken for preparation tableting evaluation. In this experiment, samples were subjected to tableting under the same pressure by using a punch die with a diameter of 6 mm, radial crushing forces F, diameters D and thicknesses L of the tablets were measured after the elastic recovery of the tablets, and the tensile strength of the tablets was calculated according to the following formula: tensile strength Ts = 2F/ΠDL.

[4] = Mechanical stability: grinding, XRPD before and after; conditions: ground with an agate mortar for 5 min; hydrochloride
Experimental: 50 mg crystal form A of ethoximod and 50 mg crystal form B of ethoximod were weighed and ground clockwise with an agate mortar for 5 min, and the samples before and after the grinding were subjected to an XRPD test.

[5] = Microscopic morphology and particle size; conditions: optical microscope, 40× objective lens; hydrochloride
Description: Samples of the crystal form A and the crystal form B of ethoximod were subjected to microscopic morphological researches. The morphology and particle sizes of the crystal form A and the crystal form B were observed under a 40× objective lens of an optical microscope. The crystal form A is irregular and plate-shaped with a raw material particle size of below 35 µm and a long/short diameter ratio of 1 to 2. The crystal form B aggregates and becomes spherical with a raw material particle size of below 20 µm.

[6] = Angle of repose test (flowability); conditions: hydrochloride
Experimental: Powder properties of active pharmaceutical ingredients affect the flowability of the active pharmaceutical ingredients. The crystal form A and the crystal form B of ethoximod was subjected to angle of repose and Hausner ratio tests to compare the flowability of the crystal form A and the crystal form B of ethoximod. […] In this experiment, angles of repose of active pharmaceutical ingredients of the two crystal forms were measured through an injection method in combination with a residual cone method, and the flowability of the active pharmaceutical ingredients of the two crystal forms was analyzed. Specific operations are as follows: powders were injected into a center of a disc with a limited diameter, the injection was stopped until materials on an oblique side of a powder accumulation layer automatically flew out along an edge of the disc, a height (H) of a cone was measured, and the angle of repose was calculated according to the diameter (D = 2r) of the disc with tanQ = H/r.

[7] = Equilibrium solubility in organic solvents at room temperature (HPLC; solid by XRPD); conditions: equilibrium for 24 h; for solubility: hydrochloride
Experimental: The crystal form A and the crystal form B of ethoximod were prepared into solutions at room temperature with ethanol, acetone and ethyl acetate. After equilibrium for 24 h, filtration was performed to obtain saturated solutions, and contents of the samples in the saturated solutions were measured through high-performance liquid chromatography (HPLC) (diluting the filtrates as needed). Crystal forms of the solids before and after the experiment were characterized through XRPD to check whether phase transition had occurred.

[8] = Solid-state stability on storage (crystal form by XRPD, purity); conditions: for Crystal Form after storage / main purity after storage / maximum single impurity after storage: 30 days exposed
Experimental: Samples were taken before and after storage, and crystal forms were measured through XRPD. […] Table 3 Comparison of solid-state stability of crystal form A and crystal form B

[9] = FaSSIF (pH = 8.0), 37 °C, 1 h, hydrochloride
[10] = FaSSIF (pH = 8.0), 37 °C, 2 h, hydrochloride
[11] = FaSSIF (pH = 8.0), 37 °C, 4 h, hydrochloride
[12] = FaSSIF (pH = 8.0), 37 °C, 24 h, hydrochloride

- Adhesion Amount Per Unit Area [1]: 0.001 g/m^2
- Weight of API Adsorbed in Bag [1]: 0.0735 g
- crystal form of the solid [2, 9]: free alkali
- solubility [2, 9]: 15 µg/mL
- crystal form of the solid [2, 10]: free alkali
- solubility [2, 10]: 10 µg/mL
- crystal form of the solid [2, 11]: free alkali
- solubility [2, 11]: 8 µg/mL
- crystal form of the solid [2, 12]: free alkali
- solubility [2, 12]: 21 µg/mL
- solubility ([2]; FeSSIF (pH = 5.0), 37 °C, 1 h, hydrochloride): 1480 µg/mL
- solubility ([2]; FeSSIF (pH = 5.0), 37 °C, 2 h, hydrochloride): 1630 µg/mL
- solubility ([2]; FeSSIF (pH = 5.0), 37 °C, 4 h, hydrochloride): 1210 µg/mL
- solubility ([2]; FeSSIF (pH = 5.0), 37 °C, 24 h, hydrochloride): 1670 µg/mL
- solubility ([2]; SGF (pH = 1.0), 37 °C, 1 h, hydrochloride): 290 µg/mL
- solubility ([2]; SGF (pH = 1.0), 37 °C, 2 h, hydrochloride): 280 µg/mL
- solubility ([2]; SGF (pH = 1.0), 37 °C, 4 h, hydrochloride): 320 µg/mL
- solubility ([2]; SGF (pH = 1.0), 37 °C, 24 h, hydrochloride): 360 µg/mL
- solubility ([2]; acetic acid-sodium acetate buffer pH = 4.0, 37 °C, 1 h, hydrochloride): 1450 µg/mL
- solubility ([2]; acetic acid-sodium acetate buffer pH = 4.0, 37 °C, 2 h, hydrochloride): 1780 µg/mL
- solubility ([2]; acetic acid-sodium acetate buffer pH = 4.0, 37 °C, 4 h, hydrochloride): 1930 µg/mL
- solubility ([2]; acetic acid-sodium acetate buffer pH = 4.0, 37 °C, 24 h, hydrochloride): 2610 µg/mL
- solubility ([2]; hydrochloric acid aqueous solution pH = 1.0, 37 °C, 1 h, hydrochloride): 300 µg/mL
- solubility ([2]; hydrochloric acid aqueous solution pH = 1.0, 37 °C, 2 h, hydrochloride): 410 µg/mL
- solubility ([2]; hydrochloric acid aqueous solution pH = 1.0, 37 °C, 4 h, hydrochloride): 320 µg/mL
- solubility ([2]; hydrochloric acid aqueous solution pH = 1.0, 37 °C, 24 h, hydrochloride): 360 µg/mL
- crystal form of the solid ([2]; phosphate buffer pH = 6.8, 37 °C, 1 h): free alkali
- crystal form of the solid ([2]; phosphate buffer pH = 6.8, 37 °C, 2 h): free alkali
- solubility ([2]; phosphate buffer pH = 6.8, 37 °C, 2 h, hydrochloride): lower than limit of detection
- crystal form of the solid ([2]; phosphate buffer pH = 6.8, 37 °C, 4 h): free alkali
- solubility ([2]; phosphate buffer pH = 6.8, 37 °C, 4 h, hydrochloride): lower than limit of detection
- crystal form of the solid ([2]; phosphate buffer pH = 6.8, 37 °C, 24 h): free alkali
- solubility ([2]; phosphate buffer pH = 6.8, 37 °C, 24 h, hydrochloride): 1.9 µg/mL
- solubility at 1 h ([2]; phosphate buffer, 37 °C, pH 6.8, aqueous buffer, thermodynamic from solid, phosphate buffer pH = 6.8, 37 °C, 1 h): 0.1 µg/mL
- solubility ([2]; water, 37 °C, 1 h, hydrochloride): 1690 µg/mL
- solubility ([2]; water, 37 °C, 2 h, hydrochloride): 1650 µg/mL
- solubility ([2]; water, 37 °C, 4 h, hydrochloride): 2500 µg/mL
- solubility ([2]; water, 37 °C, 24 h, hydrochloride): 2160 µg/mL
- Experimental Phenomenon [3]: relatively severe sticking
- raw material particle size [5]: below 20 µm
- Average of Angles of Repose [6]: 52.3 °
- Angle of Repose ([6]; single determination): 50.2 ° and 54.5 °
- solubility ([7]; acetone): 20 µg/mL
- solid-state crystal form ([7]; ethanol): C, with relatively poor crystallinity
- solubility ([7]; ethanol): 5050 µg/mL
- solubility ([7]; ethyl acetate): 10 µg/mL
- change in main purity ([8]; 40 °C/75% RH, 60 °C and 92.5% RH for 30 days): no significant change
- time the crystal form is stable (XRPD) ([8]; 60 °C and light): at least 30 days
- Crystal Form after storage ([8]; At 40 °C/75% RH, hydrochloride): crystal form C
- main purity after storage ([8]; At 40 °C/75% RH, hydrochloride): 98.82 A%
- maximum single impurity after storage ([8]; At 40 °C/75% RH, hydrochloride): maximum single impurity: 0.34 A%
- Crystal Form after storage ([8]; At 60 °C, hydrochloride): crystal form B
- main purity after storage ([8]; At 60 °C, hydrochloride): 98.61 A%
- maximum single impurity after storage ([8]; At 60 °C, hydrochloride): maximum single impurity: 0.36 A%
- main purity after storage ([8]; At 92.5% RH, hydrochloride): 98.83 A%
- maximum single impurity after storage ([8]; At 92.5% RH, hydrochloride): maximum single impurity: 0.36 A%
- Crystal Form after storage ([8]; In light, hydrochloride): crystal form B
- main purity after storage ([8]; In light, hydrochloride): 91.81 A%
- maximum single impurity after storage ([8]; In light, hydrochloride): maximum single impurity: 1.57 A%
- main purity ([8]; before storage, hydrochloride): crystal form B main purity: 98.85 A%
- maximum single impurity ([8]; before storage, hydrochloride): maximum single impurity: 0.33 A%
- change in main purity ([8]; light for 30 days, hydrochloride): decreased to a certain extent
Compound: CCc1nc(-c2ccc(-c3ccc(CCC(N)(CO)CO)cc3)cc2)co1.Cl [crystal form B, 2-amino-2-{2-(4'-(2-ethyloxazol-4-yl)-[1,1'-biphenyl]-4-yl)ethyl}-1,3-propylene glycol hydrochloride]
- crystal form after grinding (XRPD) [4]: partially crystal transformed into a crystal form C
- Crystal Form after storage ([8]; At 92.5% RH, hydrochloride): crystal transformed into the crystal form C
- crystal form after storage (XRPD) ([8]; placed for 5 days under 92.5% RH and 45 °C/75% RH): crystal transformed into the crystal form C
